In ChEMBL document CHEMBL5365473, “Novel Sulfonylurea-Based NLRP3 Inflammasome Inhibitor for Efficient Treatment of Nonalcoholic Steatohepatitis, Endotoxic Shock, and Colitis” (J Med Chem, 2023):
Each block holds one compound with its values, some of them ahead of it. Active and inactive are the calls of the source. The rule behind the calls is not given here.

Assays:
[1] = molecular target: NACHT, LRR and PYD domains-containing protein 3 (Mus musculus, UniProt Q8R4B8); assay: Inhibition of NLRP3 inflammasome in mouse […] cells assessed as inhibition of LPS/ATP-induced IL-1 beta secretion primed with LPS for 4.5 hs followed by incubation with compound for 30 mins and later stimulation with ATP for 30 mins by ELISA; type: cell-based, J774.A1
NACHT, LRR and PYD domains-containing protein 3, sequence (Q8R4B8 whole entry, the tested form may be a part): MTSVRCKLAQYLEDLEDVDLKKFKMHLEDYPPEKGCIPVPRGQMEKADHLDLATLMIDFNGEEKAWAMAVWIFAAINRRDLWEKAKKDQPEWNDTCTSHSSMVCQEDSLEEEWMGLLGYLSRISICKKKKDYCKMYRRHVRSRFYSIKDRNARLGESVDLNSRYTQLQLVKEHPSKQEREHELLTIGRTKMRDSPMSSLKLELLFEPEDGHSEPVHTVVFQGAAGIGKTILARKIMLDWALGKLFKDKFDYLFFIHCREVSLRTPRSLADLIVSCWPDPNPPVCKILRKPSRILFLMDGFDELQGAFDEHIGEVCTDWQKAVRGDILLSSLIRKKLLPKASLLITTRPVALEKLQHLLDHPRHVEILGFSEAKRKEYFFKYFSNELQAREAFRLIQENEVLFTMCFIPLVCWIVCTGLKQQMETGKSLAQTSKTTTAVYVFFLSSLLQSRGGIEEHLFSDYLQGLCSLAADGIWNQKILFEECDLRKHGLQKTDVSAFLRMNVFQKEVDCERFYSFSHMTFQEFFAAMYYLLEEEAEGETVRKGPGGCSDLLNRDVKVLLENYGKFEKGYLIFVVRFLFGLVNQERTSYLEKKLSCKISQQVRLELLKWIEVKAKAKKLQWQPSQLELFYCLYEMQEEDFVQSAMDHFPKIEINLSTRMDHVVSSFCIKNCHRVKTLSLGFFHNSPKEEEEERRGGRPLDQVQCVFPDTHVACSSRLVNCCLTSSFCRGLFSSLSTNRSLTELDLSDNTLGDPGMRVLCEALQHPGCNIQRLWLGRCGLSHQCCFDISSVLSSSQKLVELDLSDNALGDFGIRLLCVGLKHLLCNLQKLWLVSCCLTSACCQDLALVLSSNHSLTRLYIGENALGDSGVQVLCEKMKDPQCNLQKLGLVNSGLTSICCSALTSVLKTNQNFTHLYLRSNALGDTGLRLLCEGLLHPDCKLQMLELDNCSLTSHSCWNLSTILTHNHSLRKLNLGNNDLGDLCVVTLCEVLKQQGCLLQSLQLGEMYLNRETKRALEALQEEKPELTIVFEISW

[2] = system: Mus musculus; assay: Antiinflammatory activity against LPS-induced lethal septic shock C57BL/6 mouse model assessed as reduction in serum IL-1 beta level at 20 to 40 mg/kg, ip administered for 1 hr prior to LPS challenge and measured after 2.5 hrs by ELISA; type: functional, organism-based; conditions: dose 20-40 mg/kg, time 3.5 hrs
[3] = system: Mus musculus; assay: Antiinflammatory activity against MCD diet-induced NASH C57BL/6 mouse model assessed as reduction in liver fibrosis at 40 mg/kg, po administered via gavage for 5 weeks by H and E staining based analysis; type: functional, organism-based
[4] = system: Mus musculus; assay: Antiinflammatory activity against MCD diet-induced NASH C57BL/6 mouse model assessed as reduction in balloon dilatation in liver at 40 mg/kg, po administered via gavage for 5 weeks by Masson's trichrome staining based analysis; type: functional, organism-based
[5] = system: L02; assay: Cytotoxicity against human HL7702 cells assessed as reduction in cell viability at 200 uM measured after 24 hrs by CCK8 assay; type: toxicity, cell-based; conditions: l02, 24 h
[6] = system: Mus musculus; assay: Antiinflammatory activity against DSS-induced ulcerative colitis C57BL/6 mouse assessed as reduction in massive loss of goblet cells in colon at 10 mg/kg, ip administered for 9 days and measured on day 10 by H and E staining based analysis; type: functional, organism-based; conditions: time 10.0 day
[7] = system: Mus musculus; assay: Antiinflammatory activity against MCD diet-induced NASH C57BL/6 mouse model assessed as reduction in balloon dilatation in liver at 40 mg/kg, po administered via gavage for 5 weeks by H and E staining based analysis; type: functional, organism-based
[8] = Effect on immune cell numbers in MCS diet-fed C57BL/6 mouse assessed as effect on CD45 expression at 40 mg/kg, po administered via gavage for 5 weeks by immunofluorescence staining based analysis; type: toxicity, organism-based; conditions: in vivo, 840 h
[9] = system: Mus musculus; assay: Antiinflammatory activity against DSS-induced ulcerative colitis C57BL/6 mouse assessed as reduction in body weight loss at 10 mg/kg, ip administered for 9 days and measured daily; type: functional, organism-based; conditions: time 9.0 day
[10] = system: Mus musculus; assay: Antiinflammatory activity against LPS-induced lethal septic shock C57BL/6 mouse model assessed as increase in animal's survival rate at 20 mg/kg, ip administered for 1 hr prior to LPS challenge and measured for 72 hrs; type: functional; conditions: time 73 hrs
[11] = system: Mus musculus; assay: Antiinflammatory activity against MCD diet-induced NASH C57BL/6 mouse model assessed as reduction in liver fibrosis at 40 mg/kg, po administered via gavage for 5 weeks by Sirius red staining based analysis; type: functional, organism-based
[12] = system: Mus musculus; assay: Antiinflammatory activity against MCD diet-induced NASH C57BL/6 mouse model assessed as improvement in liver morphology at 40 mg/kg, po administered via gavage for 5 weeks by Sirius red staining based analysis; type: functional, organism-based
[13] = system: Mus musculus; assay: Antiinflammatory activity against MCD diet-induced NASH C57BL/6 mouse model assessed as reduction in immune cell infiltration by measuring reduction in CD45-positive hepatic cells at 40 mg/kg, po administered via gavage for 5 weeks by immunofluorescence staining based analysis; type: functional, organism-based
[14] = system: Mus musculus; assay: Antiinflammatory activity against MCD diet-induced NASH C57BL/6 mouse model assessed as reduction in liver fibrosis at 40 mg/kg, po administered via gavage for 5 weeks by Masson's trichrome staining based analysis; type: functional, organism-based
[15] = molecular target: NACHT, LRR and PYD domains-containing protein 3 (Mus musculus) (UniProt Q8R4B8); conditions: J774.A1, dose 30.0 nM, time 3.0 hrs
NACHT, LRR and PYD domains-containing protein 3 (Mus musculus), sequence (Q8R4B8 whole entry, the tested form may be a part): as above

[16] = system: Mus musculus; assay: Antiinflammatory activity against LPS-induced lethal septic shock C57BL/6 mouse model assessed as increase in animal's survival rate at 40 mg/kg, ip administered for 1 hr prior to LPS challenge and measured for 72 hrs; type: functional; conditions: time 73 hrs
[17] = Oral bioavailability in C57BL/6 mouse at 20 mg/kg by LC-MS/MS analysis; type: ADME, organism-based; conditions: in vivo
[18] = system: Mus musculus; assay: Antiinflammatory activity against MCD diet-induced NASH C57BL/6 mouse model assessed as protection against MCD diet-induced increase in liver to body weight ratio at 40 mg/kg, po administered via gavage for 5 weeks; type: functional, organism-based
[19] = system: Mus musculus; assay: Antiinflammatory activity against MCD diet-induced NASH C57BL/6 mouse model assessed as reduction in immune cell infiltration by measuring reduction in F4/80-positive hepatic cells at 40 mg/kg, po administered via gavage for 5 weeks by immunofluorescence staining based analysis; type: functional, organism-based
[20] = system: Mus musculus; assay: Antiinflammatory activity against DSS-induced ulcerative colitis C57BL/6 mouse assessed as reduction in crypt necrosis in colon at 10 mg/kg, ip administered for 9 days and measured on day 10 by H and E staining based analysis; type: functional, organism-based; conditions: time 10.0 day
[21] = molecular target: NACHT, LRR and PYD domains-containing protein 3 (Mus musculus) (UniProt Q8R4B8); conditions: J774.A1, dose 30.0 nM, time 3.0 hrs; remark: listed apart in the source
[22] = system: Mus musculus; assay: Antiinflammatory activity against MCD diet-induced NASH C57BL/6 mouse model assessed as reduction in balloon dilatation in liver at 40 mg/kg, po administered via gavage for 5 weeks by Sirius red staining based analysis; type: functional, organism-based
[23] = system: Mus musculus; assay: Antiinflammatory activity against LPS-induced lethal septic shock C57BL/6 mouse model assessed as effect on TNF-alpha level at 40 mg/kg, ip administered for 1 hr prior to LPS challenge and measured after 2.5 hrs by ELISA; type: functional, organism-based; conditions: time 3.5 hrs
[24] = system: Mus musculus; assay: Antiinflammatory activity against MCD diet-induced NASH C57BL/6 mouse model assessed as reduction in liver steatosis at 40 mg/kg, po administered via gavage for 5 weeks by Sirius red staining based analysis; type: functional, organism-based
[25] = system: Mus musculus; assay: Antiinflammatory activity against MCD diet-induced NASH C57BL/6 mouse model assessed as reduction in TUNEL-positive hepatic cells at 40 mg/kg, po administered via gavage for 5 weeks by TUNEL assay; type: functional, organism-based
[26] = system: Mus musculus; assay: Antiinflammatory activity against MCD diet-induced NASH C57BL/6 mouse model assessed as improvement in liver morphology at 40 mg/kg, po administered via gavage for 5 weeks by H and E staining based analysis; type: functional, organism-based
[27] = system: Mus musculus; assay: Antiinflammatory activity against DSS-induced ulcerative colitis C57BL/6 mouse assessed as reduction in mucosal barrier disruption in colon at 10 mg/kg, ip administered for 9 days and measured on day 10 by H and E staining based analysis; type: functional, organism-based; conditions: time 10.0 day
[28] = system: Mus musculus; assay: Antiinflammatory activity against DSS-induced ulcerative colitis C57BL/6 mouse assessed as reduction in colon length shortening at 10 mg/kg, ip administered for 9 days and measured on day 10; type: functional, organism-based; conditions: time 10.0 day
[29] = system: Hepatocyte; assay: Cytotoxicity against mouse primary hepatic cells assessed as reduction in cell viability at 200 uM measured after 24 hrs by CCK8 assay; type: toxicity, cell-based; conditions: hepatocytes
[30] = Effect on immune cell numbers in MCS diet-fed C57BL/6 mouse assessed as effect on F4/80 expression at 40 mg/kg, po administered via gavage for 5 weeks by immunofluorescence staining based analysis; type: toxicity, organism-based; conditions: in vivo, 840 h
[31] = system: Mus musculus; assay: Antiinflammatory activity against MCD diet-induced NASH C57BL/6 mouse model assessed as improvement in liver morphology at 40 mg/kg, po administered via gavage for 5 weeks by Masson's trichrome staining based analysis; type: functional, organism-based
[32] = system: Mus musculus; assay: Antiinflammatory activity against DSS-induced ulcerative colitis C57BL/6 mouse assessed as reduction in inflammatory cells infiltration in lamina propria in colon at 10 mg/kg, ip administered for 9 days and measured on day 10 by H and E staining based analysis; type: functional, organism-based; conditions: time 10.0 day
[33] = system: Mus musculus; assay: Antiinflammatory activity against MCD diet-induced NASH C57BL/6 mouse model assessed as reduction in liver steatosis at 40 mg/kg, po administered via gavage for 5 weeks by Masson's trichrome staining based analysis; type: functional, organism-based
[34] = Half life in C57BL/6 mouse at 20 mg/kg, po by LC-MS/MS analysis; type: ADME, organism-based; conditions: in vivo
[35] = system: Mus musculus; assay: Antiinflammatory activity against MCD diet-induced NASH C57BL/6 mouse model assessed as reduction in liver steatosis at 40 mg/kg, po administered via gavage for 5 weeks by H and E staining based analysis; type: functional, organism-based

IC50 [1]: 63 nM
SMILES: CCN(C)Cc1ccc(S(=O)(=O)NC(=O)Nc2c3c(cc4c2CCC4)CCC3)cc1

IC50 [1]: > 20000 nM
SMILES: CC(C)(O)c1cccc(S(=O)(=O)NC(=O)Nc2c3c(cc4c2CCC4)CCC3)c1

IC50 [1]: > 10000 nM
SMILES: CCCCN(C)Cc1ccc(S(=O)(=O)NC(=O)Nc2c3c(cc4c2CCC4)CCC3)cc1

IC50 [1]: 722 nM
SMILES: CN(C)Cc1cc(F)cc(S(=O)(=O)NC(=O)Nc2c3c(cc4c2CCC4)CCC3)c1

IC50 [1]: > 10000 nM
SMILES: CCc1cccc(CC)c1NC(=O)NS(=O)(=O)c1ccc(CN(C)C)cc1

IC50 [1]: 1680 nM
SMILES: CN(C)Cc1cc(S(=O)(=O)NC(=O)Nc2c3c(cc4c2CCC4)CCC3)ccn1

IC50 [1]: > 10000 nM
SMILES: CCCN(C)Cc1ccc(S(=O)(=O)NC(=O)Nc2c3c(cc4c2CCC4)CCC3)cc1

SMILES: CC(C)(O)c1coc(S(=O)(=O)NC(=O)Nc2c3c(cc4c2CCC4)CCC3)c1
Activity [2]: Active
Activity [3]: Active
Activity [4]: Active
Activity [5]: Toxic
Activity [6]: Active
Activity [7]: Active
Activity [8]: Non-Toxic
Activity [9]: Active
survival at 20 mg/kg [10]: 20%
Activity [11]: Active
Activity [12]: Active
Activity [13]: inactive
Activity [14]: Active
inhibition [15]: Active
survival at 40 mg/kg [16]: 60%
bioavailability [17]: 85.2%
Activity [18]: Active
Activity [19]: inactive
Activity [20]: Active
inhibition [21]: Active
Activity [22]: Active
Activity [23]: inactive
IC50 [1]: 14 nM
Activity [24]: Active
Activity [25]: Active
Activity [26]: Active
Activity [27]: Active
Activity [28]: Active
Activity [29]: Toxic
Activity [30]: Non-Toxic
Activity [31]: Active
Activity [32]: Active
Activity [33]: Active
half-life [34]: 1.32 h
Activity [35]: Active

IC50 [1]: 1480 nM
SMILES: CN(C)Cc1ccc(S(=O)(=O)NC(=O)Nc2c(-c3ccccc3)cccc2-c2ccccc2)cc1

IC50 [1]: 691 nM
SMILES: CN(C)C(=O)c1cccc(S(=O)(=O)NC(=O)Nc2c3c(cc4c2CCC4)CCC3)c1

IC50 [1]: 168 nM
SMILES: CN(C)Cc1cccc(S(=O)(=O)NC(=O)Nc2c3c(cc4c2CCC4)CCC3)c1

IC50 [1]: 1860 nM
SMILES: CC(C)c1cccc(C(C)C)c1CC(=O)NS(=O)(=O)c1ccc(CN(C)C)cc1

IC50 [1]: 3690 nM
SMILES: O=C(Nc1c2c(cc3c1CCC3)CCC2)NS(=O)(=O)c1ccc(CN2CCOCC2)cc1

IC50 [1]: > 5000 nM
SMILES: CC(C)(C)OC(=O)N1CC=C(c2c3c(c(NC(=O)NS(=O)(=O)c4cc(C(C)(C)O)co4)c4c2CCC4)CCC3)CC1

IC50 [1]: 138 nM
SMILES: CC(C)c1cccc(C(C)C)c1NC(=O)NS(=O)(=O)c1ccc(CN(C)C)cc1
